As a reminder, the refractive index is a measure of how strongly the sample bends light.

Each structure is given as a SMILES string. Numbers after ± are expanded uncertainties.

This data set can be described thus: refractive index (Na D-line) (dimensionless). Particulars: 293.15 K; 101.33 kPa; Liquid; Standard Abbe refractometry.
As to `CC(C)=O` [acetone], the refractive index stood at 1.3588 ± 0.0011.

In the case of `CCC(=O)O` [propanoic acid], the refractive index came out at 1.3809 ± 0.001.

For `CCC(C)O` (stereo not drawn) [butan-2-ol], the refractive index stood at 1.3978 ± 0.0011.

Source of the values: the NIST ThermoML archive (doi:10.1016/j.fluid.2016.10.024).
